We go through 13 compounds from ChEMBL document CHEMBL1201862, “PubChem BioAssay data set” (2004).

Some test systems named below: EKVX; HCC 2998; HCT-15; HL-60; MDA-N; Malme-3M; NCI-H522; NCI/ADR-RES; OVCAR-3; RXF 393; SK-MEL-2; SK-MEL-5; SR; SW-620; T47D; TK-10; U-251; NCI-H23; BT-549.
What all share (assay): NCI tumour cell line growth inhibition, 48 h

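Grown in 96-well plates, cells were treated for 48 hours with each compound at five concentrations. Insufficient inhibition: endpoint recorded as highest concentration tested. GI50: concentration for 50% inhibition of growth.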 Calls of active or inactive are those of the source. Cut-off read from the data, not from the text of the source: active = GI50 up to about 1.1 µM and inactive = higher.

With `Cn1c2c(c3ccccc31)CCN1OCC=C[C@@H](C(=O)O)[C@@H]21`, the GI50 with EKVX was > 100 µM (inactive); with HCC 2998 it was > 100 µM (inactive); in the assay with HCT-15 it was over 100 µM; in the assay on HL-60, > 100 µM (inactive); with MDA-N, > 100 µM (inactive); with Malme-3M, > 100 µM (inactive). The GI50 in the assay on NCI-H522, in the assay on NCI/ADR-RES, in the assay on OVCAR-3, in the assay with RXF 393, with SK-MEL-2 and in the assay on SK-MEL-5 was > 100 µM (inactive) each time. Besides, the GI50 in the assay on SR, in the assay on SW-620, with T47D, in the assay with TK-10 and with U-251 was > 100 µM (inactive) throughout.

Consider `Cc1c(/C=N/NS(=O)(=O)c2ccccc2)no[n+]1[O-]`, for which the GI50 was > 100 µM (inactive) in the assay on EKVX; over 100 µM with HCT-15; > 100 µM (inactive) in the assay with HL-60; > 100 µM (inactive) in the assay with Malme-3M; > 100 µM (inactive) with NCI-H23; > 100 µM (inactive) in the assay on NCI-H522. The GI50 in the assay on OVCAR-3, with RXF 393, in the assay on SK-MEL-2, with SK-MEL-5, in the assay with SR and with SW-620 was > 100 µM (inactive) in each case. In addition, the GI50 in the assay on TK-10 and in the assay on U-251 was > 100 µM (inactive) throughout.

Turning to `Cc1cccc(NC2=NCCO2)c1Cl`, the GI50 with EKVX was > 100 µM (inactive); in the assay on HCC 2998 it was > 100 µM (inactive); with HCT-15 it was over 100 µM; in the assay with HL-60, > 100 µM (inactive); with Malme-3M, > 100 µM (inactive); in the assay on NCI-H23, > 100 µM (inactive). The GI50 in the assay with NCI/ADR-RES, with RXF 393, with SK-MEL-5, with SR, in the assay on SW-620 and in the assay on T47D was > 100 µM (inactive) in each case. Also, the GI50 in the assay on TK-10 and in the assay on U-251 was > 100 µM (inactive) in each case.

With `NC1CCCCC1.O=C(CP(=O)(O)O)NC(CC(=O)OCc1ccccc1)C(=O)OCc1ccccc1` (stereo not drawn), the GI50 was > 100 µM (inactive) with EKVX; > 100 µM (inactive) in the assay on HCC 2998; over 100 µM with HCT-15; > 100 µM (inactive) in the assay on HL-60; > 100 µM (inactive) in the assay on MDA-N; > 100 µM (inactive) with Malme-3M. Besides, the GI50 with NCI-H23 is > 100 µM (inactive); with NCI-H522, > 100 µM (inactive); in the assay with NCI/ADR-RES, > 100 µM (inactive); in the assay with OVCAR-3, > 100 µM (inactive); in the assay with RXF 393, > 100 µM (inactive); with SK-MEL-2, 4.85 µM (inactive). Moreover, the GI50 in the assay on SK-MEL-5, in the assay on SR, with SW-620, with T47D and in the assay on U-251 was > 100 µM (inactive) throughout.

In the case of `NC(=O)c1ncn(C2C=CC(CP(=O)(O)O)C2)c1N` (stereo not drawn), the GI50 in the assay with EKVX is > 100 µM (inactive); in the assay on HCC 2998, > 100 µM (inactive); with HCT-15 it was over 100 µM; with HL-60 it was > 100 µM (inactive); in the assay with MDA-N it was > 100 µM (inactive); with Malme-3M it was > 100 µM (inactive). For the same compound, the GI50 with NCI-H23, with NCI/ADR-RES, in the assay on OVCAR-3, in the assay on RXF 393, in the assay with SK-MEL-2 and with SK-MEL-5 was > 100 µM (inactive) throughout. Besides, the GI50 in the assay on SR, with SW-620, in the assay with T47D, with TK-10 and in the assay on U-251 was > 100 µM (inactive) in each case.

On to `FC(F)(F)C12C34C=CC5(CCC6(C=CC1(CC3)O6)C52C(F)(F)F)O4` (stereo not drawn), for which the GI50 with EKVX, in the assay on HCC 2998, with HL-60, in the assay on Malme-3M, in the assay with NCI-H23 and in the assay with NCI-H522 was > 100 µM (inactive) in each case. The GI50 with OVCAR-3 is > 100 µM (inactive); in the assay on RXF 393 it was 93.5 µM (inactive); in the assay on SK-MEL-2, > 100 µM (inactive); in the assay with SR, > 100 µM (inactive); in the assay on SW-620, > 100 µM (inactive); with TK-10 it was > 100 µM (inactive). In addition, the GI50 in the assay on U-251 is > 100 µM (inactive).

Consider `CCCC1C(C#N)(C#N)C(C#N)=C(N)C1(C)C(C)=O` (stereo not drawn), for which the GI50 was > 100 µM (inactive) in the assay with EKVX; > 100 µM (inactive) in the assay on HCC 2998; 29.2 µM with HCT-15; 31.8 µM (inactive) in the assay on HL-60; 42.7 µM (inactive) in the assay on MDA-N; 77.1 µM (inactive) in the assay with Malme-3M. Besides, the GI50 with NCI-H23 is > 100 µM (inactive); in the assay on NCI-H522 it was 52.8 µM (inactive); in the assay on NCI/ADR-RES, > 100 µM (inactive); in the assay on RXF 393, 71 µM (inactive); in the assay with SK-MEL-2, > 100 µM (inactive); in the assay on SK-MEL-5 it was 65.2 µM (inactive). For the same compound, the GI50 with SW-620 is > 100 µM (inactive); in the assay with T47D it was 59 µM (inactive); with TK-10, > 100 µM (inactive); with U-251 it was > 100 µM (inactive).

`Oc1ccc2ccccc2c1CCc1c(O)ccc2ccccc12`: the GI50 with EKVX is 13.4 µM (inactive); in the assay on HCC 2998 it was 3.81 µM (inactive); in the assay on HCT-15, 14.4 µM; in the assay with HL-60, 22.8 µM (inactive); with MDA-N, 13.5 µM (inactive); in the assay with Malme-3M, 13.4 µM (inactive). The GI50 with NCI-H23 is 11.8 µM (inactive); in the assay with NCI/ADR-RES it was 13.6 µM (inactive); with OVCAR-3 it was 4.42 µM (inactive); with RXF 393, 11.7 µM (inactive); in the assay with SK-MEL-5, 12.6 µM (inactive); in the assay with SR, 12 µM (inactive). Besides, the GI50 with SW-620 was 14.2 µM (inactive); in the assay on T47D, 2.44 µM (inactive); in the assay with TK-10, 18.6 µM (inactive); in the assay on U-251 it was 13.3 µM (inactive).

As for `COC(=O)C1CCCN1C(=O)C(Cc1cn(S(=O)(=O)c2ccc(C)cc2)cn1)NC(=O)OC(C)(C)C` (stereo not drawn), the GI50 was > 100 µM (inactive) in the assay with BT-549; > 100 µM (inactive) in the assay on EKVX; > 100 µM (inactive) in the assay with HCC 2998; over 100 µM in the assay on HCT-15; > 100 µM (inactive) with HL-60; > 100 µM (inactive) with MDA-N. The GI50 in the assay with Malme-3M, in the assay with NCI-H23, in the assay with RXF 393, in the assay on SK-MEL-2, in the assay with SK-MEL-5 and in the assay on SR was > 100 µM (inactive) each time. Besides, the GI50 with SW-620, with TK-10 and in the assay with U-251 was > 100 µM (inactive) in each case.

`CC1(C)[C@@H]2CC[C@@]1(C)[C@@H]1O[C@@H](O[C@@H](CN)c3cc(Cl)c(OCc4ccccc4)c(OCc4ccccc4)c3)C[C@H]21`: the GI50 is 0.166 µM (active) in the assay with EKVX; 0.177 µM (active) with HL-60; 0.152 µM (active) in the assay on MDA-N; 0.183 µM (active) in the assay on Malme-3M; 0.186 µM (active) with NCI-H522; 0.168 µM (active) in the assay with OVCAR-3. The GI50 in the assay on RXF 393 was 0.15 µM (active); in the assay with SK-MEL-2, 0.173 µM (active); in the assay on SK-MEL-5 it was 0.178 µM (active); in the assay on SR, 0.0627 µM (active); with SW-620 it was 0.191 µM (active); in the assay on T47D, 0.178 µM (active). Further, the figures for the GI50 in the assay with TK-10 and with U-251 were 0.177 µM (active) and 0.158 µM (active), respectively.

As for `CNC(=O)C1CCC(=O)N1CN(C(C)=O)c1ccccc1` (stereo not drawn), the GI50 with EKVX was > 100 µM (inactive); with HCT-15, over 100 µM; in the assay on MDA-N, > 100 µM (inactive); with Malme-3M it was > 100 µM (inactive); with NCI-H23, > 100 µM (inactive); with NCI-H522, > 100 µM (inactive). In addition, the GI50 was > 100 µM (inactive) with NCI/ADR-RES; > 100 µM (inactive) in the assay with OVCAR-3; > 100 µM (inactive) with RXF 393; > 100 µM (inactive) in the assay with SK-MEL-2; > 100 µM (inactive) in the assay on SK-MEL-5; 13.6 µM (inactive) with SR. The GI50 in the assay on SW-620, in the assay with T47D, in the assay on TK-10 and in the assay on U-251 was > 100 µM (inactive) in each case.

Consider `CN(C)CCNc1nc2c(no[n+]2[O-])c2ccccc12.[O-][Cl+3]([O-])([O-])O`, for which the GI50 is 26.1 µM (inactive) in the assay on EKVX; 28.2 µM (inactive) in the assay on HCC 2998; 18 µM with HCT-15; 28.9 µM (inactive) with MDA-N; 22.5 µM (inactive) in the assay with Malme-3M; 34.4 µM (inactive) with NCI-H23. Moreover, the GI50 is 24.4 µM (inactive) in the assay with NCI-H522; 31.2 µM (inactive) in the assay on NCI/ADR-RES; 30.8 µM (inactive) in the assay on OVCAR-3; 17.5 µM (inactive) in the assay on RXF 393; 19.4 µM (inactive) in the assay with SK-MEL-2; 15.2 µM (inactive) with SK-MEL-5. Moreover, the GI50 was 15.1 µM (inactive) in the assay on SR; 11.1 µM (inactive) with SW-620; 57.9 µM (inactive) in the assay with T47D; 24.9 µM (inactive) in the assay with TK-10; 31.5 µM (inactive) in the assay with U-251.

Regarding `Cc1ccccc1C(=O)NC(O)(C(F)(F)F)C(F)(F)F`, the GI50 in the assay with EKVX was > 100 µM (inactive); in the assay with HCC 2998, > 100 µM (inactive); with HCT-15 it was over 100 µM; with HL-60, 54.7 µM (inactive); in the assay on MDA-N it was > 100 µM (inactive); with Malme-3M, 28.2 µM (inactive). Further, the GI50 was 78.2 µM (inactive) in the assay with NCI-H23; 47 µM (inactive) with NCI-H522; 70 µM (inactive) with NCI/ADR-RES; 35.1 µM (inactive) with OVCAR-3; > 100 µM (inactive) in the assay on RXF 393; 56.1 µM (inactive) in the assay on SK-MEL-2. The GI50 was 94 µM (inactive) in the assay on SK-MEL-5; > 100 µM (inactive) in the assay on SW-620; 65.2 µM (inactive) in the assay on T47D; > 100 µM (inactive) with TK-10; > 100 µM (inactive) in the assay with U-251.
